Data from PubChem BioAssay AID1963841 (Molecular Pharmacology Branch, DTP, NCI, 2024).

Tested on: 439559-082-T-J2-PDC spheroid viability
Experiment: Anticancer human tumor 439559-082-T-J2-PDC patient-derived colon adenocarcinoma cell line growth inhibition [POLQ]
Settings: spheroids with HUVEC and MSC; for IC50: curve of first compound; for viability, T/C: stronger effect = lower value
Outline: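 PDC + HUVEC + MSC complex spheroids; POLQ inhibitors ± partner drugs; top conc. at/near clinical Cmax, else 10 microM (SN-38 1 microM), half-log dilutions; 37 degrees C, 5% CO2.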

[1] = second compound 0.0316 µM, first compound 0.0316 µM
[2] = second compound 0.0316 µM, first compound 0.1 µM
[3] = second compound 0.0316 µM, first compound 0.316 µM
[4] = second compound 0.0316 µM, first compound 1 µM
[5] = second compound 0.0316 µM, first compound 3.16 µM
[6] = second compound 0.0316 µM, first compound 10 µM
[7] = second compound 0.1 µM, first compound 0.0316 µM
[8] = second compound 0.1 µM, first compound 0.1 µM
[9] = second compound 0.1 µM, first compound 0.316 µM
[10] = second compound 0.1 µM, first compound 1 µM
[11] = second compound 0.1 µM, first compound 3.16 µM
[12] = second compound 0.1 µM, first compound 10 µM
[13] = second compound 0.316 µM, first compound 0.0316 µM
[14] = second compound 0.316 µM, first compound 0.1 µM
[15] = second compound 0.316 µM, first compound 0.316 µM
[16] = second compound 0.316 µM, first compound 1 µM
[17] = second compound 0.316 µM, first compound 3.16 µM
[18] = second compound 0.316 µM, first compound 10 µM
[19] = second compound 1 µM, first compound 0.0316 µM
[20] = second compound 1 µM, first compound 0.1 µM
[21] = second compound 1 µM, first compound 0.316 µM
[22] = second compound 1 µM, first compound 1 µM
[23] = second compound 1 µM, first compound 3.16 µM
[24] = second compound 1 µM, first compound 10 µM
[25] = second compound 3.16 µM, first compound 0.0316 µM
[26] = second compound 3.16 µM, first compound 0.1 µM
[27] = second compound 3.16 µM, first compound 0.316 µM
[28] = second compound 3.16 µM, first compound 1 µM
[29] = second compound 3.16 µM, first compound 3.16 µM
[30] = second compound 3.16 µM, first compound 10 µM
[31] = second compound 10 µM, first compound 0.0316 µM
[32] = second compound 10 µM, first compound 0.1 µM
[33] = second compound 10 µM, first compound 0.316 µM
[34] = second compound 10 µM, first compound 1 µM
[35] = second compound 10 µM, first compound 3.16 µM
[36] = second compound 10 µM, first compound 10 µM
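Note: spheroids exposed to compounds for seven days before readout.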
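Throughout, for viability, T/C: 100% = DMSO vehicle control viability.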

COc1cc2cc(C(=O)CCC(=O)O)sc2cc1OC + Cc1cccc(N(C)C(=O)C2C(O)CCN2c2nc(C)cc(C(F)(F)F)c2C#N)c1
IC50 (second compound 0.0316 µM): > 10 µM
IC50 (second compound 0.1 µM): > 10 µM
IC50 (second compound 0.316 µM): > 10 µM
IC50 (second compound 1 µM): > 10 µM
IC50 (second compound 3.16 µM): > 10 µM
IC50 (second compound 10 µM): > 10 µM
viability, T/C [1]: 104%
viability, T/C [2]: 92.7%
viability, T/C [3]: 95.1%
viability, T/C [4]: 101%
viability, T/C [5]: 100%
viability, T/C [6]: 84.8%
viability, T/C [7]: 107%
viability, T/C [8]: 101%
viability, T/C [9]: 105%
viability, T/C [10]: 99%
viability, T/C [11]: 91.7%
viability, T/C [12]: 94.2%
viability, T/C [13]: 99.5%
viability, T/C [14]: 112%
viability, T/C [15]: 86.7%
viability, T/C [16]: 108%
viability, T/C [17]: 106%
viability, T/C [18]: 95.9%
viability, T/C [19]: 107%
viability, T/C [20]: 107%
viability, T/C [21]: 96.2%
viability, T/C [22]: 96.5%
viability, T/C [23]: 104%
viability, T/C [24]: 88.5%
viability, T/C [25]: 112%
viability, T/C [26]: 97.7%
viability, T/C [27]: 105%
viability, T/C [28]: 87.4%
viability, T/C [29]: 110%
viability, T/C [30]: 94.9%
viability, T/C [31]: 99%
viability, T/C [32]: 107%
viability, T/C [33]: 101%
viability, T/C [34]: 90.9%
viability, T/C [35]: 100%
viability, T/C [36]: 87.3%

CC1COCCN1c1cc(C2(O)CC3CCC(C2)O3)c2cnn(-c3ccn[nH]3)c2n1 (stereo unspecified) + COC1C(OC(N)=O)C(O)C(Oc2ccc3c(O)c(NC(=O)c4ccc(O)c(CC=C(C)C)c4)c(=O)oc3c2C)OC1(C)C
IC50 (second compound 0.0316 µM): 2.58 µM
IC50 (second compound 0.1 µM): 2.62 µM
IC50 (second compound 0.316 µM): 2.08 µM
IC50 (second compound 1 µM): 1.92 µM
IC50 (second compound 3.16 µM): 1.84 µM
IC50 (second compound 10 µM): 1.25 µM
viability, T/C [1]: 97%
viability, T/C [2]: 89.6%
viability, T/C [3]: 67.5%
viability, T/C [4]: 58.4%
viability, T/C [5]: 48.7%
viability, T/C [6]: 45.1%
viability, T/C [7]: 95.1%
viability, T/C [8]: 86.9%
viability, T/C [9]: 68.4%
viability, T/C [10]: 58.3%
viability, T/C [11]: 46.9%
viability, T/C [12]: 46.8%
viability, T/C [13]: 99%
viability, T/C [14]: 83.1%
viability, T/C [15]: 69.9%
viability, T/C [16]: 56.8%
viability, T/C [17]: 42.2%
viability, T/C [18]: 46.3%
viability, T/C [19]: 93.6%
viability, T/C [20]: 89.5%
viability, T/C [21]: 66.5%
viability, T/C [22]: 56.1%
viability, T/C [23]: 48.2%
viability, T/C [24]: 42.4%
viability, T/C [25]: 89.2%
viability, T/C [26]: 85%
viability, T/C [27]: 65.3%
viability, T/C [28]: 54.3%
viability, T/C [29]: 47.9%
viability, T/C [30]: 45.5%
viability, T/C [31]: 89.1%
viability, T/C [32]: 87.4%
viability, T/C [33]: 66.4%
viability, T/C [34]: 52.5%
viability, T/C [35]: 46.7%
viability, T/C [36]: 44.8%

CNCc1ccc(-c2[nH]c3cc(F)cc4c3c2CCNC4=O)cc1 + Cc1cccc(N(C)C(=O)C2C(O)CCN2c2nc(C)cc(C(F)(F)F)c2C#N)c1
IC50 (second compound 0.0316 µM): > 10 µM
IC50 (second compound 0.1 µM): > 10 µM
IC50 (second compound 0.316 µM): > 10 µM
IC50 (second compound 1 µM): > 10 µM
IC50 (second compound 3.16 µM): > 10 µM
IC50 (second compound 10 µM): > 10 µM
viability, T/C [1]: 94.8%
viability, T/C [2]: 108%
viability, T/C [3]: 99.3%
viability, T/C [4]: 96.5%
viability, T/C [5]: 102%
viability, T/C [6]: 110%
viability, T/C [7]: 103%
viability, T/C [8]: 105%
viability, T/C [9]: 108%
viability, T/C [10]: 95.8%
viability, T/C [11]: 101%
viability, T/C [12]: 96.8%
viability, T/C [13]: 105%
viability, T/C [14]: 105%
viability, T/C [15]: 98.3%
viability, T/C [16]: 114%
viability, T/C [17]: 102%
viability, T/C [18]: 102%
viability, T/C [19]: 99.3%
viability, T/C [20]: 92.6%
viability, T/C [21]: 92.2%
viability, T/C [22]: 106%
viability, T/C [23]: 95.7%
viability, T/C [24]: 106%
viability, T/C [25]: 105%
viability, T/C [26]: 98.3%
viability, T/C [27]: 96.9%
viability, T/C [28]: 99.1%
viability, T/C [29]: 102%
viability, T/C [30]: 99.5%
viability, T/C [31]: 88.4%
viability, T/C [32]: 92.8%
viability, T/C [33]: 93.5%
viability, T/C [34]: 91.1%
viability, T/C [35]: 97.2%
viability, T/C [36]: 100%
